According to the NIST ThermoML archive (doi:10.1021/je400781b):
± gives the expanded uncertainty stated by the source.

Assays:
[1] = 101 kPa, Liquid; for speed of sound: Frequency=2.75 MHz, Pulse-echo method; for mass density: Vibrating tube method
[2] = refractive index (Na D-line) (dimensionless); details: 298.15 K; 101.33 kPa; Liquid; Standard Abbe refractometry
[3] = xn = mol fraction of the nth substance listed; details: 101 kPa, Liquid, x2 = 0; for speed of sound: Frequency=2.75 MHz, Pulse-echo method; for mass density: Vibrating tube method

Structure (SMILES) | speed of sound ([1]; 293.15 K) | mass density ([1]; 293.15 K) | speed of sound ([1]; 298.15 K) | mass density ([1]; 298.15 K) | speed of sound ([1]; 303.15 K) | mass density ([1]; 303.15 K) | speed of sound ([1]; 308.15 K) | mass density ([1]; 308.15 K) | speed of sound ([1]; 313.15 K) | mass density ([1]; 313.15 K) | refractive index [2] | speed of sound ([3]; 293.15 K) | mass density ([3]; 293.15 K) | speed of sound ([3]; 298.15 K) | mass density ([3]; 298.15 K) | speed of sound ([3]; 303.15 K) | mass density ([3]; 303.15 K) | speed of sound ([3]; 308.15 K) | mass density ([3]; 308.15 K) | further results
CCCC[n+]1ccn(C)c1.O=S(=O)([N-]S(=O)(=O)C(F)(F)F)C(F)(F)F | 1237.9 ± 1.5 m/s | 1439.23 ± 0.61 kg/m3 | 1226.7 ± 1.5 m/s | 1434.44 ± 0.61 kg/m3 | 1215.6 ± 1.5 m/s | 1429.65 ± 0.6 kg/m3 | 1204.6 ± 1.5 m/s | 1424.88 ± 0.6 kg/m3 | 1193.7 ± 1.5 m/s | 1420.12 ± 0.59 kg/m3 | 1.4265 ± 0.0008 |  |  |  |  |  |  |  |  | 
CC#N [acetonitrile] | 1298.2 ± 1.2 m/s | 782 ± 0.15 kg/m3 | 1277.7 ± 1.2 m/s | 776.6 ± 0.15 kg/m3 | 1257.2 ± 1.2 m/s | 771.18 ± 0.15 kg/m3 | 1236.9 ± 1.2 m/s | 765.72 ± 0.15 kg/m3 | 1216.6 ± 1.2 m/s | 760.24 ± 0.16 kg/m3 | 1.3416 ± 0.0008 |  |  |  |  |  |  |  |  | 
CC#N [acetonitrile] + CCCC[n+]1ccn(C)c1.O=S(=O)([N-]S(=O)(=O)C(F)(F)F)C(F)(F)F |  |  |  |  |  |  |  |  |  |  |  | 1298.2 ± 1.2 m/s | 782 ± 0.15 kg/m3 | 1277.7 ± 1.2 m/s | 776.6 ± 0.15 kg/m3 | 1257.2 ± 1.2 m/s | 771.18 ± 0.15 kg/m3 | 1236.9 ± 1.2 m/s | 765.72 ± 0.15 kg/m3 | speed of sound ([3]; 313.15 K): 1216.6 ± 1.2 m/s; mass density ([3]; 313.15 K): 760.24 ± 0.16 kg/m3
C1CCOC1 [tetrahydrofuran] | 1301.9 ± 1.2 m/s | 887.52 ± 0.12 kg/m3 | 1277.5 ± 1.2 m/s | 882.06 ± 0.13 kg/m3 | 1253.2 ± 1.2 m/s | 876.57 ± 0.13 kg/m3 | 1229 ± 1.2 m/s | 871.04 ± 0.13 kg/m3 |  |  | 1.4052 ± 0.0008 |  |  |  |  |  |  |  |  | 
C1CCOC1 [tetrahydrofuran] + CCCC[n+]1ccn(C)c1.O=S(=O)([N-]S(=O)(=O)C(F)(F)F)C(F)(F)F |  |  |  |  |  |  |  |  |  |  |  | 1301.9 ± 1.2 m/s | 887.52 ± 0.12 kg/m3 | 1277.5 ± 1.2 m/s | 882.06 ± 0.13 kg/m3 | 1253.2 ± 1.2 m/s | 876.57 ± 0.13 kg/m3 | 1229 ± 1.2 m/s | 871.04 ± 0.13 kg/m3 | 
